Data taken from the NIST ThermoML archive (doi:10.1021/je030107c).

Legend:
[1] = xn = mol fraction of the nth substance listed; conditions: 101.3 kPa, Liquid; for viscosity: Capillary tube (Ostwald / Ubbelohde) method; for speed of sound: Linear variable-path acoustic interferometer; for mass density: Pycnometric method
[2] = refractive index (Na D-line) (dimensionless); xn = mol fraction of the nth substance listed; conditions: 101.3 kPa, Liquid, Standard Abbe refractometry

C1COCCO1 [1,4-dioxane] + OCCO
Conditions	mass density, 298.15 K [kg/m3]	mass density, 303.15 K [kg/m3]	mass density, 308.15 K [kg/m3]	refractive index, 298.15 K	refractive index, 303.15 K	refractive index, 308.15 K	speed of sound, 298.15 K [m/s]	viscosity, 298.15 K [mPa·s]	viscosity, 303.15 K [mPa·s]	viscosity, 308.15 K [mPa·s]
[1], x1 = 0.1031	1100.6	1096.6	1092.8	–	–	–	1620	9.007	7.262	5.518
[1], x1 = 0.2072	1090.6	1086.4	1082.4	–	–	–	1577	6.285	5.149	4.013
[1], x1 = 0.3021	1082	1077.6	1073.1	–	–	–	1537	4.654	3.849	3.044
[1], x1 = 0.4246	1071.1	1066.5	1061.7	–	–	–	1485	3.177	2.68	2.181
[1], x1 = 0.5042	1064.5	1059.7	1054.7	–	–	–	1456	2.566	2.184	1.802
[1], x1 = 0.5986	1056.8	1051.7	1046.8	–	–	–	1426	2.012	1.728	1.444
[1], x1 = 0.6914	1049.6	1044.5	1039.5	–	–	–	1400	1.663	1.447	1.229
[1], x1 = 0.7906	1042.4	1037.1	1031.8	–	–	–	1381	1.388	1.226	1.063
[1], x1 = 0.8909	1035.2	1029.9	1024.5	–	–	–	1369	1.212	1.081	0.949
[1], x1 = 1	1027.6	1021.9	1016.2	–	–	–	1347	1.166	1.069	0.984
[2], x1 = 0.1031	–	–	–	1.4294	1.4279	1.4262	–	–	–	–
[2], x1 = 0.2072	–	–	–	1.4284	1.4268	1.425	–	–	–	–
[2], x1 = 0.3021	–	–	–	1.4275	1.4256	1.4236	–	–	–	–
[2], x1 = 0.4246	–	–	–	1.426	1.424	1.4219	–	–	–	–
[2], x1 = 0.5042	–	–	–	1.4248	1.4226	1.4204	–	–	–	–
[2], x1 = 0.5986	–	–	–	1.4238	1.4216	1.4193	–	–	–	–
[2], x1 = 0.6914	–	–	–	1.423	1.4207	1.4186	–	–	–	–
[2], x1 = 0.7906	–	–	–	1.422	1.4196	1.4172	–	–	–	–
[2], x1 = 0.8909	–	–	–	1.421	1.4187	1.4163	–	–	–	–
[2], x1 = 1	–	–	–	1.4201	1.417	1.4143	–	–	–	–

CCCCN(CCCC)CCCC [tributylamine] + C1COCCO1
Conditions	mass density, 298.15 K [kg/m3]	mass density, 303.15 K [kg/m3]	mass density, 308.15 K [kg/m3]	refractive index, 298.15 K	refractive index, 303.15 K	refractive index, 308.15 K	speed of sound, 298.15 K [m/s]	viscosity, 298.15 K [mPa·s]	viscosity, 303.15 K [mPa·s]	viscosity, 308.15 K [mPa·s]
[1], x2 = 0	774.4	770.1	766.2	–	–	–	1261	1.36	1.221	1.125
[1], x2 = 0.1201	785.1	780.9	776.8	–	–	–	1253	1.245	1.142	1.039
[1], x2 = 0.2122	794.7	790.2	785.9	–	–	–	1254	1.19	1.089	0.989
[1], x2 = 0.3072	806	801.6	797.1	–	–	–	1257	1.156	1.059	0.963
[1], x2 = 0.4085	820.5	815.9	811.4	–	–	–	1264	1.137	1.044	0.95
[1], x2 = 0.5014	836.6	832.1	827.5	–	–	–	1272	1.123	1.032	0.94
[1], x2 = 0.5972	856.9	852.1	847.4	–	–	–	1281	1.118	1.026	0.934
[1], x2 = 0.6998	884	879.2	874.1	–	–	–	1292	1.112	1.022	0.933
[1], x2 = 0.7999	917.9	912.6	907.4	–	–	–	1305	1.114	1.025	0.936
[1], x2 = 0.8947	960.6	955.2	949.9	–	–	–	1320	1.133	1.042	0.952
[2], x2 = 0	–	–	–	1.4274	1.4251	1.4226	–	–	–	–
[2], x2 = 0.1201	–	–	–	1.4266	1.424	1.4215	–	–	–	–
[2], x2 = 0.2122	–	–	–	1.4259	1.4236	1.421	–	–	–	–
[2], x2 = 0.3072	–	–	–	1.425	1.4226	1.4201	–	–	–	–
[2], x2 = 0.4085	–	–	–	1.4244	1.4218	1.4196	–	–	–	–
[2], x2 = 0.5014	–	–	–	1.4234	1.4209	1.4184	–	–	–	–
[2], x2 = 0.5972	–	–	–	1.4226	1.4201	1.4174	–	–	–	–
[2], x2 = 0.6998	–	–	–	1.4217	1.4192	1.4168	–	–	–	–
[2], x2 = 0.7999	–	–	–	1.421	1.4185	1.416	–	–	–	–
[2], x2 = 0.8947	–	–	–	1.4205	1.418	1.4154	–	–	–	–

CCN(CC)CC [triethylamine] + C1COCCO1
Conditions	mass density, 298.15 K [kg/m3]	mass density, 303.15 K [kg/m3]	mass density, 308.15 K [kg/m3]	refractive index, 298.15 K	refractive index, 303.15 K	refractive index, 308.15 K	speed of sound, 298.15 K [m/s]	viscosity, 298.15 K [mPa·s]	viscosity, 303.15 K [mPa·s]	viscosity, 308.15 K [mPa·s]
[1], x2 = 0	723.1	718.5	713.6	–	–	–	1127	0.363	0.347	0.33
[1], x2 = 0.1104	744.6	739.7	734.8	–	–	–	1139	0.392	0.372	0.353
[1], x2 = 0.2044	764.5	759.5	754.6	–	–	–	1155	0.418	0.397	0.377
[1], x2 = 0.3028	787.3	782.2	777.1	–	–	–	1172	0.451	0.428	0.404
[1], x2 = 0.398	811.3	806.1	800.9	–	–	–	1189	0.494	0.466	0.438
[1], x2 = 0.4946	838	832.8	827.5	–	–	–	1210	0.542	0.512	0.481
[1], x2 = 0.5986	869.7	864.3	859	–	–	–	1234	0.613	0.575	0.538
[1], x2 = 0.6952	902.3	896.8	891.5	–	–	–	1260	0.697	0.652	0.608
[1], x2 = 0.7996	941.2	935.6	930	–	–	–	1290	0.815	0.76	0.705
[1], x2 = 0.8934	979.8	974.2	968.5	–	–	–	1318	0.958	0.889	0.821
[2], x2 = 0	–	–	–	1.3983	1.3955	1.3926	–	–	–	–
[2], x2 = 0.1104	–	–	–	1.3996	1.3969	1.3942	–	–	–	–
[2], x2 = 0.2044	–	–	–	1.4014	1.3985	1.3956	–	–	–	–
[2], x2 = 0.3028	–	–	–	1.4032	1.4002	1.3972	–	–	–	–
[2], x2 = 0.398	–	–	–	1.4048	1.402	1.3994	–	–	–	–
[2], x2 = 0.4946	–	–	–	1.4068	1.404	1.4013	–	–	–	–
[2], x2 = 0.5986	–	–	–	1.4095	1.4067	1.4041	–	–	–	–
[2], x2 = 0.6952	–	–	–	1.4117	1.409	1.4062	–	–	–	–
[2], x2 = 0.7996	–	–	–	1.4147	1.412	1.4093	–	–	–	–
[2], x2 = 0.8934	–	–	–	1.4176	1.4148	1.4121	–	–	–	–

C1COCCO1 [1,4-dioxane] + CCCCCC
Conditions	mass density, 298.15 K [kg/m3]	mass density, 303.15 K [kg/m3]	mass density, 308.15 K [kg/m3]	refractive index, 298.15 K	refractive index, 303.15 K	refractive index, 308.15 K	speed of sound, 298.15 K [m/s]	viscosity, 298.15 K [mPa·s]	viscosity, 303.15 K [mPa·s]	viscosity, 308.15 K [mPa·s]
[1], x1 = 0.1135	682	677.3	672.5	–	–	–	1087	0.333	0.319	0.304
[1], x1 = 0.2057	706.4	701.4	696.5	–	–	–	1099	0.357	0.34	0.323
[1], x1 = 0.3099	736.2	731.2	726.1	–	–	–	1116	0.391	0.372	0.353
[1], x1 = 0.4032	765.7	760.5	755.3	–	–	–	1132	0.429	0.408	0.386
[1], x1 = 0.501	799.6	794.3	788.9	–	–	–	1154	0.482	0.455	0.429
[1], x1 = 0.6028	838.1	832.7	827.2	–	–	–	1185	0.549	0.517	0.485
[1], x1 = 0.7006	878.7	873.3	868	–	–	–	1220	0.634	0.596	0.557
[1], x1 = 0.7991	924	918.3	912.4	–	–	–	1257	0.753	0.705	0.656
[1], x1 = 0.8962	972.1	966.4	960.8	–	–	–	1303	0.912	0.849	0.787
[1], x1 = 1	1027.6	1021.9	1016.2	–	–	–	1347	1.166	1.069	0.984
[2], x1 = 0.1135	–	–	–	1.3758	1.3728	1.37	–	–	–	–
[2], x1 = 0.2057	–	–	–	1.3787	1.3756	1.3726	–	–	–	–
[2], x1 = 0.3099	–	–	–	1.3824	1.3795	1.3767	–	–	–	–
[2], x1 = 0.4032	–	–	–	1.3864	1.3838	1.3814	–	–	–	–
[2], x1 = 0.501	–	–	–	1.3906	1.3878	1.385	–	–	–	–
[2], x1 = 0.6028	–	–	–	1.3954	1.3928	1.3903	–	–	–	–
[2], x1 = 0.7006	–	–	–	1.4014	1.3986	1.3959	–	–	–	–
[2], x1 = 0.7991	–	–	–	1.4078	1.4048	1.4017	–	–	–	–
[2], x1 = 0.8962	–	–	–	1.414	1.4119	1.4098	–	–	–	–
[2], x1 = 1	–	–	–	1.4201	1.417	1.4143	–	–	–	–
